{"source": "patent US20070065428A1", "about": "“Early B-cell detection for selecting vaccines” (Pepscan Systems B.V., priority 2004, published 2007)", "key": {"GnRH-specific B cells [1]": {"system": "GnRH-specific B cells", "assay": "Staining of specific B cells with tetramers made from C-term, N-term or middle biotinylated GnRH", "assay_type": "cell-based, mice", "settings": "middle- or C-terminally biotinylated GnRH (FIG. 3B)", "experimental": "FIG. 3B: Specific B cells are recognized only by C-term tetramer. Peptide-tetrameric molecules made with different biotinylated GnRH: C-term, N-term, and middle biotinylated peptides.\nTetrameric molecules were produced by mixing equal volumes of C-biotinylated, middle biotinylated or N-biotinylated GnRH at 200 μM (Pepscan Systems) with R-phycoerythrin (PE)-labeled neutravidin at 3.3 μM (PE-NA, Molecular Probes, Eugene, Oreg.), or allophycocyanin (APC)-labeled streptavidin at 6.1 μM (APC-SA, Molecular Probes). Each mixture was incubated at 4° C. for at least 12 hours. Then, tetramers were separated from non-complexed peptide by gel filtration using Bio-Gel P-30 spin columns (Bio-Rad, Hercules, Calif.).\nAs a further specificity test, we produced tetramers using peptides that were N-, middle-, or C-terminally labeled."}, "hCG-specific B cells": {"system": "hCG-specific B cells", "assay": "Double-tetramer (PE/APC hCG-tetramer) flow cytometry of rat lymphocytes after immunization with CTP-hCG", "assay_type": "in vivo", "settings": "rat spleen lymphocytes, days 10 to 12 after one i.p. immunization; hCG-tetramer double-staining; one value per rat (nos. 1-3)", "experimental": "Six eight-week-old rats were used and were treated according to the ethical guidelines of our institutions. Rats (nos. 1, 2, and 3) were immunized intraperitoneally on day 0 with 100 μg C-Terminal Peptide (CTP), which comprises amino acid position 109-145 of hCG, coupled with 300 μg KLH, in Complete Freunds Adjuvant (CFA). The accession number of hCG is p01233, the Swiss prot. entry name is CGHB_HUMAN.\nControl rats (nos. 4, 5, and 6) were immunized with KLH in CFA. On days 10 to 12, the animals were sacrificed and spleens were harvested. All animal experiments were performed with permission from the local ethical committee (DEC).\nCell suspensions of splenocytes were obtained by mechanical disruption of the spleens. Lymphocytes were collected using a Ficoll gradient. The resulting single-cell suspensions were stained with hCG-tetramers at optimal dilution. Staining was conducted at 4° C. in two steps. First, cells were stained with the PE-labeled tetramer of hCG for one hour, using the empirically determined optimal concentration. Cells were then washed three times with FACS buffer. Next, cells were stained with the APC-labeled tetramer of hCG and washed again. […]\nLymphocytes were stained with hCG-tetramers. […] Only […] detected as a responder to the immunization based on specific B-cell responses."}, "GnRH-specific B cells [2]": {"system": "GnRH-specific B cells", "assay": "Inhibition of GnRH-tetramer staining of specific B cells by pre-incubation with unlabeled GnRH", "assay_type": "cell-based, mice", "experimental": "FIG. 3A: Unlabeled GnRH or Gastrin is able to inhibit the peptide-tetrameric molecule staining of the specific B cells. […] Splenocytes were pre-incubated with unlabeled GnRH or Gastrin, followed by incubation with labeled tetramers and anti-CD19 and anti-CD3 antibodies. Three doses of unlabeled antigens were used: 2 mM, 20 μM and 0.2 μM.\nLymphocytes were preincubated with unlabeled peptide followed by incubation with labeled tetramers, CD19 and CD3e antibodies."}, "GnRH": {"system": "GnRH", "settings": "cited from earlier work; for biological effect: peptide conjugated to a carrier protein (Meloen et al., 1994; Oonk et al., 1998); for immunogenicity: peptide conjugated to a carrier protein, resulting in GnRH-neutralizing antibodies (Meloen et al., 1994; Oonk et al., 1998)"}}, "note": "Where “and” joins values, the source holds several entries; their conditions need not be identical. Identical values can stand only once. Non-standard residues stand in square brackets, D forms with d. No end group written: not given here. *: point of attachment. Biotin = O=C1N[C@H]2[C@H](CS[C@H]2CCCCC(=O)*)N1; pGlu = O=C1CC[C@@H](C(=O)O)N1", "data": [{"substance": "C-term biotinylated GnRH tetrameric: C-biotinylated GnRH complexed with PE-labeled neutravidin or APC-labeled streptavidin (QHWSYGLRPG-biotin; ends and bridges not checked; also: tetramer with PE-labeled neutravidin or APC-labeled streptavidin; UniProt P01148 24-33, looked up)", "values": [{"measurement": "detection of specific B cells by the tetramer", "setting": "GnRH-specific B cells [1]", "value": "able to detect the specific B cells"}]}, {"substance": "CTP-KLH/CFA: C-Terminal Peptide, amino acid position 109-145 of hCG, coupled with KLH, in Complete Freunds Adjuvant (TCDDPRFQDSSSSKAPPPSLPSPSRLPGPSDTPILPQ; also: coupled with KLH, in Complete Freunds Adjuvant; UniProt P0DN86 129-165, looked up, fragment)", "values": [{"measurement": "Pos. B cells per 1 × 10^6 cells in Facs", "setting": "hCG-specific B cells", "value": "61 per 1 × 10^6 cells and 47 per 1 × 10^6 cells and 136 per 1 × 10^6 cells"}]}, {"substance": "middle biotinylated peptides: tetramer of middle biotinylated GnRH with PE-labeled neutravidin or APC-labeled streptavidin (QHWSYGLRPG; ends and bridges not checked; also: middle biotinylated, tetramer with PE-labeled neutravidin or APC-labeled streptavidin; UniProt P01148 24-33, looked up)", "values": [{"measurement": "detection of specific B cells by the tetramer", "setting": "GnRH-specific B cells [1]", "value": "Only the C-term peptide was able to detect the specific cells"}]}, {"substance": "Unlabeled GnRH: Gonadotrophin-releasing hormone, a decapeptide, used unlabeled as competitor of tetramer staining (QHWSYGLRPG; ends and bridges not checked; UniProt P01148 24-33, looked up)", "values": [{"measurement": "inhibition of tetramer staining, dose dependence", "setting": "GnRH-specific B cells [2]; lymphocytes preincubated with unlabeled peptide, then labeled tetramers (FIG. 3A)", "value": "inhibited by inclusion of unlabeled peptide in a dose-dependent manner"}, {"measurement": "inhibition of peptide-tetramer staining of specific B cells", "setting": "GnRH-specific B cells [2]; splenocytes pre-incubated with unlabeled antigen, higher dose of 2 mM, 20 μM and 0.2 μM", "value": "nearly abolished"}]}, {"substance": "pEHWSYGLRPGQHWSYGLRPGC ([pGlu]HWSYGLRPGQHWSYGLRPGC) [GnRH tandem]", "values": [{"measurement": "biological effect", "setting": "GnRH", "value": "full biological effect in all treated animals"}, {"measurement": "immunogenicity", "setting": "GnRH", "value": "highly immunogenic"}]}, {"substance": "N-term: tetramer of N-biotinylated GnRH with PE-labeled neutravidin or APC-labeled streptavidin (Biotin-QHWSYGLRPG; ends and bridges not checked; also: tetramer with PE-labeled neutravidin or APC-labeled streptavidin; UniProt P01148 24-33, looked up)", "values": [{"measurement": "detection of specific B cells by the tetramer", "setting": "GnRH-specific B cells [1]", "value": "Only the C-term peptide was able to detect the specific cells"}]}, {"substance": "dimerized form of pEHWSYkLRPGQHWSYkLRPGC [TDK]", "values": [{"measurement": "biological effect", "setting": "GnRH", "value": "full biological effect in all treated animals"}, {"measurement": "immunogenicity", "setting": "GnRH", "value": "highly immunogenic"}]}]}
